# Reference: patent US20030022920A1, “1-Methyl-4- (3-ethoxy-9H-thioxanthene-9-ylidene) -piperidine and its use as 5-HT2B/H1 receptor antagonist” (priority 2001, published 2003)
# Assays:
# human 5-HT2B receptor [1] = molecular target: T1, human 5-HT2B receptor (Homo sapiens, UniProt P41595); assay: 5-HT2A/5-HT2B/5-HT2C receptor binding methods (counter screen for selectivity); parameters: expressed in transfected cells; host or cells: HEK293; conditions: human 5-HT2B in HEK293, [3H]-5HT approx. 0.4 nM, 120 min at 4° C.; result in words only
# T1 sequence (P41595 whole entry): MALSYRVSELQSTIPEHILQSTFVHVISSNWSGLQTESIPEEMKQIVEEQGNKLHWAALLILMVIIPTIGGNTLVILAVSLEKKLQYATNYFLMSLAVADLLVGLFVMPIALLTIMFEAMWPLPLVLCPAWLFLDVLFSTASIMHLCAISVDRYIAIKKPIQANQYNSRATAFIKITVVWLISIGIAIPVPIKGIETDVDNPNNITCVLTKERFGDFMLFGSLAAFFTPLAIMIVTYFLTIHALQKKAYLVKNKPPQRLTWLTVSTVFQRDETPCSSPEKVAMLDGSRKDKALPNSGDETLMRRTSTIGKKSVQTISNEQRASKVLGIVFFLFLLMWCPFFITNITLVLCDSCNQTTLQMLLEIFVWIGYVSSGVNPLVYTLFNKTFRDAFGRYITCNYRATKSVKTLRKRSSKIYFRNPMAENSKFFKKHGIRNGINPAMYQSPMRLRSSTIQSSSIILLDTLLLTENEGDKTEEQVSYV
# Method: 5-HT2A 5-HT2B 5-HT2C Receptor Binding Methods
# 5-HT2A receptors were labelled with [^3H]ketanserin in human cortex, in HEK293 cells expressing a cloned human 5-HT2A receptor and in HEK293 cells expressing the rat 5-HT2A receptor. For competition binding studies the ligand concentration was approximately 0.1 nM. For saturation binding studies concentrations of radioligand ranged from 0.01 nM to 2.0 nM. Assays were conducted in 0.5 ml of assay buffer (50 mM Tris-HCl, 4 mM calcium chloride, 0.1% by weight ascorbic acid) (pH 7.4 at 4° C.). Non-specifc binding was defined with […] unlabelled ketanserin. After a 60 min incubation at 32° C., membranes were harvested onto filters treated with 0.1% by weight of polyethylenimine and the bound radioactivity was determined.
# Human 5-HT2B receptors were labelled in HEK293 cells as described above. except that the radioligand was [^3H]-5HT and that the assay buffer contained pargyline in a concentration of 10 mM and 0.1% by weight of ascorbic acid. […]
# Competition radioligand binding data was analyzed using a four parameter logistic equation and iterative curve-fitting techniques to obtain estimates of the IC50 and Hill slope. Kd values, determined from saturation binding studies were then used to calculate inhibition dissociation constants (Ki).
# [2] = molecular target: T2, human Histamine H1 receptor (Homo sapiens, UniProt P35367); assay: Cloned human H1, H2 and H3 receptor binding assay ([3H]-mepyramine, transfected COS-7 cell homogenates); conditions: displacement of 1 nM [3H]-mepyramine, COS-7 homogenates; result in words only
# T2 construct: expressed in transfected cells; host or cells: COS-7 (transient transfection; cell homogenates)
# T2 sequence (P35367 whole entry): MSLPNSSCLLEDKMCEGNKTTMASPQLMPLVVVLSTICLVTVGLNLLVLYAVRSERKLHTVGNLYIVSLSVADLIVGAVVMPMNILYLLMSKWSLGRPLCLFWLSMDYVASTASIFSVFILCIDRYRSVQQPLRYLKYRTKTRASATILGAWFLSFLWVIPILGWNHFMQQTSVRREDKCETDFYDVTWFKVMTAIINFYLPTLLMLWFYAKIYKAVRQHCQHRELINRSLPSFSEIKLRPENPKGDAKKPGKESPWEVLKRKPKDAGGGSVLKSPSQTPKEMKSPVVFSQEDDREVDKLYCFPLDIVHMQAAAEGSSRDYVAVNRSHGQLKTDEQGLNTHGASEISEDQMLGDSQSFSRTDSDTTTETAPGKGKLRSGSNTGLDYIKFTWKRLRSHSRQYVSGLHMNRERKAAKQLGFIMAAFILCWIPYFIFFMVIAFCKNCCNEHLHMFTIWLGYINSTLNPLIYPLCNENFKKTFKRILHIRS
# Method: Cloned Human H1, H2, and H3 Receptor Binding Assay
# COS-7 cells were transiently transfected with an expression plasmid pCineohH1, pCineohH2, pCineohH3 and pCineohH4 encoding the human Histamine H1, H2, H3 or H4 receptor, respectively. Transfected cells were harvested after 48 h, homogenized in ice-cold 50 mM Na2/potassium phosphate buffer (pH 7.4) and used for radioligand binding studies. Cell homogenates (40-50 μg of protein) were incubated for 30 min at 25° C. in 50 mM Na2/potassium phosphate buffer (pH 7.4) in 400 μl with the various concentrations of either [^3H]-mepyramine, [^3H]-thiotidine, [^3H]-R-α-Methylhistamine, and [^3H]-pyramilamine for cells expressing recombinant human H1, H2, H3 and H4 receptors, respectively. The nonspecific binding was defined in the presence of 1 μM mianserin. In displacement studies, cell homogenated were incubated either with 1 nM [^3H]-mepyramine, 15 nM [^3H]-thiotidine, 0.5 nM [^3H]-R-α-Methylhistamine, or 15 nM [^3H]-pyramilamine and increasing concentrations of competing ligands. […] The bound radioactivity was seperated by filatration through Whatman GF/C filters that had been treated with 0.3% polyethyleneimine. Filters were washed twice in 3 ml of buffer and radioactivity retained on the filters was measured by liquid scinitllation counting. […]
# human H1 receptor = molecular target: T3, human H1 receptor (Homo sapiens, UniProt P35367); assay: Human histamine H1 receptor functional assay ([3H]-inositol phosphate formation in transfected HEK-293 cells); assay type: cell-based; conditions: histamine-stimulated [3H]-inositol phosphate formation, result in words only
# T3 construct: expressed in transfected cells; host or cells: HEK-293 (transient transfection; whole cells)
# T3 sequence (P35367 whole entry): as above
# Method: Human Histamine H1 Receptor Functional Assay
# For the measurement of the [^3H]-inositol phosphate formation transiently transfected HEK-293 cells were seeded in 24 well plates and labeled to equilibrium with myo-[2-^3H]-inositol (3 iCi/ml) for an additional 24 hours in growth medium. The medium was aspirated and cells were washed once with 500 μl HBS-buffer (130 mM NaCl, 900 μM NaH2PO4, 800 μM MgSO4, 5.4 mM KCl, 1.8 mM CaCl2, 25 mM Glucose in 20 mM HEPES pH 7.4). Two min after applying 20 mM Li^+ the cells were stimulated by addition of histamine in HBS-buffer. The incubation was stopped by aspiration off the culture medium and the addition of cold 10 mM formic acid. [^3H]inositol phosphates were isolated by anion exchange chromatography (see Seuwen et al., 1988, EMBO J., 7, 161-168). The pKB value was calculated according to the formula: pKB=log (A′/A−1)−log [B], where A′/A is the ratio of the agonist concentrations (EC50 in the presence/EC50 in the absence of antagonist) and [B] the concentration of antagonist.
# [3] = molecular target: T4, 5-HT receptors (the putative 5-HT2B) in rat stomach fundus longitudinal muscle (Rattus norvegicus, UniProt P30994); assay: 5-HT2B receptor tissue based functional assay in rat stomach fundus longitudinal muscle; assay type: biochemical; conditions: dextral shift of 5-HT agonist concentration-response curve, rat stomach fundus strips; result in words only
# T4 construct: Strips of longitudinal muscle were obtained from the stomach fundus of male Sprague Dawley rats; from tissue; host or cells: rat stomach fundus longitudinal muscle strips
# T4 sequence (P30994 whole entry): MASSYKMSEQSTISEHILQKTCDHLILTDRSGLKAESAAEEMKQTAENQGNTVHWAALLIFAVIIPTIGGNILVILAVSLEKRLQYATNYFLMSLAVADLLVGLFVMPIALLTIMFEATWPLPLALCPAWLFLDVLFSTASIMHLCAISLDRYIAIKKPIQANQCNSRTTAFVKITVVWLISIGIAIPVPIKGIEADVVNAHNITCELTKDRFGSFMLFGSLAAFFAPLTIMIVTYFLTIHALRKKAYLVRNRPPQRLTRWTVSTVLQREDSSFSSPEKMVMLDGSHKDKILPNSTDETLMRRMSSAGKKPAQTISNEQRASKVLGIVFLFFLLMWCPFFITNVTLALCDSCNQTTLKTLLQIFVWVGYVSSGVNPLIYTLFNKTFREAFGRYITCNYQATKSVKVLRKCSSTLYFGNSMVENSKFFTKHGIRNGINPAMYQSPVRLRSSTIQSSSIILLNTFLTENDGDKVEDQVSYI
# Method: 5-HT2B Receptor Tissue Based Functional Assay
# The following describes an in vitro functional assay characterizing 5-HT receptors (the putative 5-HT2B) in rat stomach fundus longitudinal muscle (Baxter et al., Brit. J. Pharmacol. 1994, 112, 323-331).
# Strips of longitudinal muscle were obtained from the stomach fundus of male Sprague Dawley rats. The mucosa was removed and the strips were suspended with a resting tension of 1 g in oxygenated (95% O2/5% CO2) Tyrode solution at 37° C. The composition of the Tyrode solution was as follows (mM): NaCl 136.9; KCl 2.7; NaH2PO4 0.4; MgCl2 1.0; glucose 5.6; NaHCO3 11.9; CaCl2 1.8. […]
# Effects of drugs were monitored by tension transducers and recorded on polygraph recorders. Tissue response was measured as changes in isometric tension (g). The mean potency (EC50) and maximum response were evaluated by standard iterative curve fitting procedures.
# Effects of antagonists were determined by measuring dextral shifts to the agonist concentration-response curve after equilibration of the antagonists for at least 1 h. Concentration ratios were measured at half maximal response levels and single concentration antagonist affinities were determined by the equation: [formula]
# human 5-HT2B receptor [4] = molecular target: T1, human 5-HT2B receptor; assay: Cloned human 5-HT2B receptor binding assay ([3H]-5HT, transfected HEK 293 cell membranes); parameters: expressed in transfected cells; host or cells: HEK 293 (transient transfection; membranes); conditions: [3H]5-HT 4 to 5 nM, 37° C. 30 min, result in words only
# Method: Cloned Human 5-HT2B Receptor Binding Assay
# The following describes an in vitro binding assay utilizing cloned 5-HT2B receptors radiolabelled with [^3H]-5HT.
# HEK 293 cells transiently transfected with an expression plasmid pXMD1-hu2B encoding the human 5-HT2B receptor (see Schmuck et al., FEBS Lett., 1994, 342, 85-90) were used as described previously (Schmuck et al., Eur. J. Pharmacol., 1996, 8, 959-967). Two days after transfection cells were harvested, pelleted at 500 g for 5 min at 4° C., gently resuspended in ice-cold buffer1 (50 mM TRIS pH 7.7, 4 mM CaCl2) and homogenized using a Polytron PT 1200 tissue homogenizer (position 6 for 30 s). Cells were pelleted at 50,000 g, 4° C. for 10 min, washed with buffer1 and pelleted again. The final pellet was resuspended in incubation buffer (50 mM TRIS pH 7.7, 4 mM CaCl2, 10 μM pargyline and 0.1% by weight ascorbic acid). The binding assay consisted of 300 μl of membrane suspension (protein concentration =0.3 to 0.5 mg/ml), 150 μl of competing drug and 50 μl of [^3H]5-HT at a final concentration of 4 to 5 nM. […] Filters were counted by liquid scintillation. Non-specific binding was determined in the presence of an excess of 5-HT ([…]). […] Results are expressed as pK1 values. […]
smiles,measurement,setting,value
CCOc1ccc2c(c1)Sc1ccccc1C2=C1CCN(C)CC1 [1-methyl-4-(3-ethoxy-9H-thioxanthene-9-ylidene)-piperidine],affinity for the 5-HT2B receptor,human 5-HT2B receptor [1],found to have affinity for the 5-HT2B receptor
same,affinity for the human H1 receptor,[2],found to have affinity for the human H1 receptor
same,antagonism at the human H1 receptor,human H1 receptor,found to be an antagonist at the human H1 receptor
same,antagonism at the 5-HT2B receptor,[3],found to be an antagonist at the 5-HT2B receptor
same,affinity for the 5-HT2B receptor,human 5-HT2B receptor [4],found to have affinity for the 5-HT2B receptor
